{"source": "patent US7285563B2", "about": "“Heteroaromatic urea derivatives as VR-1 receptor modulators for treating pain” (priority 2002, dated 2007)", "origin": "cited, not measured here", "target": "VR1 (Rattus norvegicus, UniProt O35433)", "sequence (O35433 whole entry)": "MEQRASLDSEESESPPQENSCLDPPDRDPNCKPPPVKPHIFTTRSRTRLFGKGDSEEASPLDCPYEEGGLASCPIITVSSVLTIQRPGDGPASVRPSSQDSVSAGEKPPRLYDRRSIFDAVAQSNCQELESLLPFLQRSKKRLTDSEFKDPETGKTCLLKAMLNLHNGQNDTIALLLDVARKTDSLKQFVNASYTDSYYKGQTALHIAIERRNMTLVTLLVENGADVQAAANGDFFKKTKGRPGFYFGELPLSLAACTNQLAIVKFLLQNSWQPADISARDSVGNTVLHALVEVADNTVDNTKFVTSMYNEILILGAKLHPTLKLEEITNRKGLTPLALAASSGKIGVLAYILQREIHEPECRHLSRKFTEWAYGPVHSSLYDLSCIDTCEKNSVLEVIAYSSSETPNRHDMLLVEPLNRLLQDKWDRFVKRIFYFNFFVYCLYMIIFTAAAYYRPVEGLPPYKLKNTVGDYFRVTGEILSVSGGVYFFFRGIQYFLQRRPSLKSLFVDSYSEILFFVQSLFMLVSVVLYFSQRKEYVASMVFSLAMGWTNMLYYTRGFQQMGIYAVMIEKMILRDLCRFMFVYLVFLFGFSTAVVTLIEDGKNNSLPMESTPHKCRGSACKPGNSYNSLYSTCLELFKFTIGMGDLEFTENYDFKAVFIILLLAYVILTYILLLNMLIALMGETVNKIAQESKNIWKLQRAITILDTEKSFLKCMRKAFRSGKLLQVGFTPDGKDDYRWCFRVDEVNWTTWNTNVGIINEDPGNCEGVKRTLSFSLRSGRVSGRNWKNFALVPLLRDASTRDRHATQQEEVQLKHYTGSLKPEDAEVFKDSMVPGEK"}
{"smiles": "C=C(C)[C@]12C[C@@H](C)[C@@]34O[C@](Cc5ccccc5)(O[C@@H]1[C@@H]3C=C(COC(=O)Cc1cc(I)c(O)c(OC)c1)C[C@]1(O)C(=O)C(C)=C[C@@H]41)O2", "note": "[Iodo-resiniferatoxin]", "values": [{"measurement": "antagonist of VR1", "setting": "Wahl et al., Mol. Pharmacol., 59:9, 2001", "value": "nanomolar antagonist"}]}
{"smiles": "Oc1cc2c(cc1O)CN(C(=S)NCCc1ccc(Cl)cc1)CCC2", "note": "[capsazepine]", "values": [{"measurement": "affinity for VR1", "setting": "Walpole et al., J. Med. Chem., 37:1942, 1994", "value": "micromolar affinity"}]}
